We go through 30 molecules from US6509371B1, “Compositions containing Bergamottin for increasing the oral bioavailability of pharmaceutical agents” (Warner-Lambert Company, priority 1997, dated 2003).

Like-named read-outs stand apart in the source and are kept apart here. Bounds are passed on as bounds.

Series [1] concerns the target T1, P450 3A4 (Homo sapiens, UniProt P08684). The series is described as follows: BG-mediated inactivation of P450 3A4 in a reconstituted system, testosterone 6β-hydroxylation activity. Particulars: reconstituted system.
Target sequence in this assay (P08684 with tags, fused parts or gaps): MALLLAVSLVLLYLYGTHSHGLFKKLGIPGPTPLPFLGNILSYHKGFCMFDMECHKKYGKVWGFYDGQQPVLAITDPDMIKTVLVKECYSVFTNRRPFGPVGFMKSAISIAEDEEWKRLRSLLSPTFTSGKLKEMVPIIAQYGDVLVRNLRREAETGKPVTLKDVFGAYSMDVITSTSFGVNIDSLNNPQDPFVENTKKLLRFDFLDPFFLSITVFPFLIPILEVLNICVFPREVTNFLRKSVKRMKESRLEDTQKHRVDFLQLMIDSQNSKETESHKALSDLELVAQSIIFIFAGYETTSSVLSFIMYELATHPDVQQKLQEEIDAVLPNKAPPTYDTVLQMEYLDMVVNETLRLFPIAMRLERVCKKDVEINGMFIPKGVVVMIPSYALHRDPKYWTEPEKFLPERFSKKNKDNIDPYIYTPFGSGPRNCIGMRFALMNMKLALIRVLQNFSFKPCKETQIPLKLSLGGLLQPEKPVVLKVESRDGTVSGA
For series [2] the following is noted: cited from earlier work.
Series [3] deals with T1, P450 3A4. As to conditions: in vivo; cited from earlier work.
Target sequence in this assay (P08684 whole entry): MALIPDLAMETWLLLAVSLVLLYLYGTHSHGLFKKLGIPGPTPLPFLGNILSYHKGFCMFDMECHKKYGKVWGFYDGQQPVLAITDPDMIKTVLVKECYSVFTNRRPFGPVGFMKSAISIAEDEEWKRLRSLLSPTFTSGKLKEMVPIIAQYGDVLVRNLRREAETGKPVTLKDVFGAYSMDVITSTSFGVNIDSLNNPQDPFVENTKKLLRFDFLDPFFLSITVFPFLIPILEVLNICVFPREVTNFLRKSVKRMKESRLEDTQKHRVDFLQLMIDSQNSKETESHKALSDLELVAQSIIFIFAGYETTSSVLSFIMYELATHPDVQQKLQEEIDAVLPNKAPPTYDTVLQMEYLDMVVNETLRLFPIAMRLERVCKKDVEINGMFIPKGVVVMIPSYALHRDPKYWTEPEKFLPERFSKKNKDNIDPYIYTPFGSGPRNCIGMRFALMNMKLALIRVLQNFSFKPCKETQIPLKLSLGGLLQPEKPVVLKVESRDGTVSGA
Series [4] has as its target T1, P450 3A4. As to conditions: other potent inactivators of P450 3A4, literature; cited from earlier work.
Target sequence in this assay (P08684 whole entry): as above

With `CC(=CCOc1c2ccoc2cc2oc(=O)ccc12)CCC(O)C(C)(C)O` (stereo not drawn) [6′,7′-dihydroxybergamottin], the “Kinactivation (maximal rate constant of inactivation)” value in series [1] was 0.16 min⁻¹. On to `COc1ccc(CCN2CCC(Nc3nc4ccccc4n3Cc3ccc(F)cc3)CC2)cc1` [Astemizole], for which, in series [2] (oral), the “Oral Bioavailability” value is “Low”. Moreover, the “Fraction Metabolized” value in series [3] is above 90%. As for `CC[C@H]1OC(=O)[C@H](C)[C@@H](O[C@H]2C[C@@](C)(OC)[C@@H](O)[C@H](C)O2)[C@H](C)[C@@H](O[C@@H]2O[C@H](C)C[C@H](N(C)C)[C@H]2O)[C@](C)(O)C[C@@H](C)CN(C)[C@H](C)[C@@H](O)[C@]1(C)O` [Azithromycin], the “Oral Bioavailability” value in series [2] (oral) is given as 35-45%. `NC(=O)N1c2ccccc2C=Cc2ccccc21` [Carbamazepine]: in series [2] (oral), the “Oral Bioavailability” value is recorded as above 70%. Besides, the “Fraction Metabolized” value in series [3] was above 90%. For `COc1cc(N)c(Cl)cc1C(=O)NC1CCN(CCCOc2ccc(F)cc2)CC1OC` (stereo not drawn) [Cisapride], the “Oral Bioavailability” value in series [2] (oral) is 35-40%.

Regarding `CC[C@H]1OC(=O)[C@H](C)[C@@H](O[C@H]2C[C@@](C)(OC)[C@@H](O)[C@H](C)O2)[C@H](C)[C@@H](O[C@@H]2O[C@H](C)C[C@H](N(C)C)[C@H]2O)[C@](C)(OC)C[C@@H](C)C(=O)[C@H](C)[C@@H](O)[C@]1(C)O` [Clarithromycin], in series [2] (oral), the “Oral Bioavailability” value is given as 50-55%. Besides, the “Fraction Metabolized” value in series [3] was above 70%. `CN1C[C@H](C(=O)N[C@]2(C)O[C@@]3(O)[C@@H]4CCCN4C(=O)[C@H](Cc4ccccc4)N3C2=O)C=C2c3cccc4[nH]cc(c34)C[C@H]21` [Ergotamine]: the “Oral Bioavailability” value in series [2] (oral) is below 1%. In addition, the “Fraction Metabolized” value in series [3] is given as above 90%. For the molecule `CC[C@H]1OC(=O)[C@H](C)[C@@H](O[C@H]2C[C@@](C)(OC)[C@@H](O)[C@H](C)O2)[C@H](C)[C@@H](O[C@@H]2O[C@H](C)C[C@H](N(C)C)[C@H]2O)[C@](C)(O)C[C@@H](C)C(=O)[C@H](C)[C@@H](O)[C@]1(C)O` [Erythromycin], in series [2] (oral), the “Oral Bioavailability” value was 30-65%. With `COc1cc([C@@H]2c3cc4c(cc3[C@@H](O[C@@H]3O[C@@H]5CO[C@@H](C)O[C@H]5[C@H](O)[C@H]3O)[C@H]3COC(=O)[C@H]23)OCO4)cc(OC)c1O` [Etoposide], in series [2] (oral), the “Oral Bioavailability” value is on record as 35-70%. On to `CCOC(=O)C1=C(C)NC(C)=C(C(=O)OC)C1c1cccc(Cl)c1Cl` (stereo not drawn) [Felodipine], for which the “Oral Bioavailability” value in series [2] (oral) is recorded as 15-25%. As to `CC(C)n1c(/C=C/C(O)CC(O)CC(=O)O)c(-c2ccc(F)cc2)c2ccccc21` (stereo not drawn) [Fluvastatin], in series [2] (oral), the “Oral Bioavailability” value was 50-9%. In series [3], the “Fraction Metabolized” value is “˜90%”.

As to `COC(=O)C1=C(C)NC(C)=C(C(=O)OC(C)C)C1c1cccc2nonc12` (stereo not drawn) [Isradipine], the “Oral Bioavailability” value in series [2] (oral) is reported as 15-25%. Moreover, in series [3], the “Fraction Metabolized” value is above 90%. Regarding `CCC(C)n1ncn(-c2ccc(N3CCN(c4ccc(OCC5COC(Cn6cncn6)(c6ccc(Cl)cc6Cl)O5)cc4)CC3)cc2)c1=O` (stereo not drawn) [Itraconazole], the “Oral Bioavailability” value in series [2] (oral) is 44-55%. The “Fraction Metabolized” value in series [3] was above 90%. Take `Cc1ncc2n1-c1ccc(Cl)cc1C(c1ccccc1F)=NC2` [Midazolam]: the “Oral Bioavailability” value in series [2] (in vivo, po) is listed as 40-50%. In series [3], the “Fraction Metabolized” value was above 90%.

As for `COC(=O)C1=C(C)NC(C)=C(C(=O)OCCN(C)Cc2ccccc2)C1c1cccc([N+](=O)[O-])c1` (stereo not drawn) [Nicardipine], in series [2] (oral), the “Oral Bioavailability” value is recorded as 20-30%. Further, the “Fraction Metabolized” value in series [3] was above 90%.

Take `COCCOC(=O)C1=C(C)NC(C)=C(C(=O)OC(C)C)C1c1cccc([N+](=O)[O-])c1` (stereo not drawn) [Nimodipine]: the “Oral Bioavailability” value in series [2] (oral) is 15-10%. `COC(=O)C1=C(C)NC(C)=C(C(=O)OCC(C)C)C1c1ccccc1[N+](=O)[O-]` (stereo not drawn) [Nisoldipine]: the “Oral Bioavailability” value in series [2] (oral) is on record as “˜5%”. In the case of `CCOC(=O)C1=C(C)NC(C)=C(C(=O)OC)C1c1cccc([N+](=O)[O-])c1` (stereo not drawn) [Nitrendipine], the “Oral Bioavailability” value in series [2] (oral) is reported as 16-6%. Also, the “Fraction Metabolized” value in series [3] is above 90%. Turning to `O=c1[nH]c2ccccc2n1C1CCN(CCCC(c2ccc(F)cc2)c2ccc(F)cc2)CC1` [Pimozide], in series [3], the “Fraction Metabolized” value is recorded as above 90%. With `CC[C@H](C)C(=O)O[C@H]1C[C@H](O)C=C2C=C[C@H](C)[C@H](CC[C@@H](O)C[C@@H](O)CC(=O)O)[C@H]21` [Pravastatin], in series [2] (oral), the “Oral Bioavailability” value is listed as 25-10%. Besides, the “Fraction Metabolized” value in series [3] is given as above 50%. In the case of `CO[C@H]1/C=C/O[C@@]2(C)Oc3c(C)c(O)c4c(c3C2=O)C2=NC3(CCN(CC(C)C)CC3)NC2=C(NC(=O)/C(C)=C\C=C\[C@H](C)[C@H](O)[C@@H](C)[C@@H](O)[C@@H](C)[C@H](OC(C)=O)[C@@H]1C)C4=O` [Rifabutin], the “Oral Bioavailability” value in series [2] (oral) is 20-12%. Further, the “Fraction Metabolized” value in series [3] is above 90%. Take `CC(C)(C)NC(=O)[C@@H]1C[C@@H]2CCCC[C@@H]2CN1C[C@@H](O)[C@H](Cc1ccccc1)NC(=O)[C@H](CC(N)=O)NC(=O)c1ccc2ccccc2n1` [Saquinavir]: in series [3], the “Fraction Metabolized” value was above 90%. Consider `CN[C@H]1CC[C@@H](c2ccc(Cl)c(Cl)c2)c2ccccc21` [Sertraline], for which, in series [3], the “Fraction Metabolized” value was above 90%. Turning to `CO[C@H]1C[C@@H]2CC[C@@H](C)[C@@](O)(O2)C(=O)C(=O)N2CCCC[C@H]2C(=O)O[C@H]([C@H](C)C[C@@H]2CC[C@@H](O)[C@H](OC)C2)CC(=O)[C@H](C)/C=C(\C)[C@@H](O)[C@@H](OC)C(=O)[C@H](C)C[C@H](C)/C=C/C=C/C=C/1C` [Sirolimus(rapamycin), Sirolimus], the “Oral Bioavailability” value in series [2] (oral) is listed as 20-10%. In addition, the “Fraction Metabolized” value in series [3] was above 90%. In the case of `C=CC[C@@H]1/C=C(\C)C[C@H](C)C[C@H](OC)[C@H]2O[C@@](O)(C(=O)C(=O)N3CCCC[C@H]3C(=O)O[C@H](/C(C)=C/[C@@H]3CC[C@@H](O)[C@H](OC)C3)[C@H](C)[C@@H](O)CC1=O)[C@H](C)C[C@@H]2OC` [Tacrolimus (FK506), Tacrolimus], the “Oral Bioavailability” value in series [2] (oral) is given as 20-15%. In series [3], the “Fraction Metabolized” value is above 90%.

Consider `C[C@]12CC[C@H]3[C@@H](CCC4=CC(=O)CC[C@@]43C)[C@@H]1CC[C@@H]2O` [Testosterone], for which, in series [2] (oral), the “Oral Bioavailability” value is “Poor”. Also, the “Fraction Metabolized” value in series [3] is recorded as above 90%.

Regarding `Cc1nnc2n1-c1ccc(Cl)cc1C(c1ccccc1Cl)=NC2` [Triazolam], in series [2] (oral), the “Oral Bioavailability” value is 45-70%. Also, the “Fraction Metabolized” value in series [3] was above 90%. Consider `CC[C@]1(O)C[C@@H]2CN(CCc3c([nH]c4ccccc34)[C@@](C(=O)OC)(c3cc4c(cc3OC)N(C)[C@H]3[C@@](O)(C(=O)OC)[C@H](OC(C)=O)[C@]5(CC)C=CCN6CC[C@]43[C@@H]65)C2)C1` [Vinblastine], for which, in series [2] (oral), the “Oral Bioavailability” value is listed as “Poor”. Besides, in series [3], the “Fraction Metabolized” value is recorded as above 50%. With `CC[C@]1(O)C[C@H]2CN(CCc3c([nH]c4ccccc34)[C@@](C(=O)OC)(c3cc4c(cc3OC)N(C=O)[C@H]3[C@@](O)(C(=O)OC)[C@H](OC(C)=O)[C@]5(CC)C=CCN6CC[C@]43[C@@H]65)C2)C1` [Vincristine], the “Oral Bioavailability” value in series [2] (oral) is “Poor”. Moreover, in series [3], the “Fraction Metabolized” value is above 50%. In the case of `C#C[C@]1(O)C=C[C@H]2[C@@H]3CCC4=CC(=O)CC[C@@H]4[C@H]3CC[C@@]21CC` [gestodene], the Kinactivation in series [4] was 0.4 min⁻¹.
